The text below walks through data of patent US4610983A, “N-acyl acidic amino acid diamide derivative, a salt thereof, and an anti-ulcer agent containing the same” (Toyama Chemical Co., Ltd., priority 1984, dated 1986).

Bounds are passed on as bounds.

Test system in the first data set: not listed separately
The experiment in a line: Acute toxicity, intraperitoneal. The conditions noted are these: mouse, in vivo, ip. As for the experimental part:
Each of the compounds of the Test Compound Nos. 2, 3, 4, 5, 6, 17, 23, 30 and 31 was intraperitoneally administered to ddY strain mice (.male., body wt. 23±2 g, 10 mice per group), and the LD50 values were measured to find that all of them were 600 mg/kg or more.
Take `CCCN(CCC)C(=O)C(CCC(=O)N(C)C)NC(=O)/C=C/c1cc2ccccc2o1` (racemic) [Test Compound 5, DL-2-[β-(2-benzofuryl)acrylamido]-N^5,N^5-dimethyl-N^1,N^1-di(n-propyl)-pentane-1,5-diamide]: the LD50 is ≥ 600 mg/kg.

The same data set, now with this note: mouse, in vivo, ip; intraperitoneal, ddY male mice.
`CCCCN(CCCC)C(=O)CCC(NC(=O)/C=C/c1ccco1)C(=O)N(CCCC)CCCC` (stereo not shown) [compound 31]: the LD50 was ≥ 600 mg/kg. The same measure, in the same setting: the figure for `CC(C)NC(=O)CCC(NC(=O)/C=C/c1ccco1)C(=O)NC(C)C` (stereo not shown) [compound 23] is ≥ 600 mg/kg; for `CN(C)C(=O)CCC(NC(=O)/C=C/c1cc2ccccc2o1)C(=O)N(C)C` (racemic) [Test Compound 4] it is ≥ 600 mg/kg; for `CN(C)C(=O)CCC(NC(=O)/C=C/c1cc2ccccc2o1)C(=O)N1CCCCC1` (racemic) [Test Compound 6] it is ≥ 600 mg/kg. Take `CCCCNC(=O)CCC(NC(=O)/C=C/c1ccco1)C(=O)NCCCC` (stereo not shown) [compound 17]: the LD50 was ≥ 600 mg/kg.

In the case of `CCCN(CCC)C(=O)C(CCC(=O)N(C)C)NC(=O)/C=C/c1ccco1` (racemic) [Test Compound 2, DL-2-[β-(2-furyl)acrylamido]-N^5,N^5-dimethyl-N^1,N^1-di(n-propyl)-pentane-1,5-diamide], the LD50 was ≥ 600 mg/kg. Same read-out and setting: the figure for `CCCN(CCC)C(=O)CCC(NC(=O)/C=C/c1ccco1)C(=O)N(CCC)CCC` (stereo not shown) [compound 30] is ≥ 600 mg/kg; for `CN(C)C(=O)CCC(NC(=O)/C=C/c1ccco1)C(=O)N(C)C` (racemic) [Test Compound 3, DL-2-[β-(2-furyl)acrylamido]-N^1,N^1,N^5,N^5-tetramethyl-pentane-1,5-diamide] it is ≥ 600 mg/kg.

Another data set deals with Wistar strain rats. The experiment in a line: Anti-ulcer activity, Indomethacin-induced ulcers, intraperitoneal (inhibition percentage). The conditions noted are these: 50 mg/kg intraperitoneal; 1 h before Indomethacin 25 mg/kg p.o.; ulcer lengths after 5 h. The class given is in vivo, Wistar strain rats (male). How it is done: On the other hand, Indomethacin alone was orally administered to a control group at the same dose. After 5 hours, the stomach of each rat was removed, and then the sum total of the lengths of the ulcers was measured and compared with that measured for the control group, whereby the inhibition percentage was calculated.
The molecule “DL-N^1,N^5-bis(3-acetoxypropyl)-2-[β-(2-furyl)acrylamido]pentane-1,5-diamide [Test Compound 19]” had an Inhibition percentage of 40%. Regarding “DL-N^5 -(3-acetoxypropyl)-2-[β-(2-furyl)acrylamido]-N^1 -n-propylpentane-1,5-diamide [Test Compound 20]”, the Inhibition percentage was 52%.

The data set is the same for the next values; noted with them: Rattus norvegicus, ip; 50 mg/kg intraperitoneal; 1 h before Indomethacin 25 mg/kg p.o.; ulcer lengths after 5 h.
The molecule `CCCN(CCC)C(=O)[C@H](CCC(=O)N(C)C)NC(=O)/C=C/C(=O)c1ccc(OC)c(OC)c1` [compound 16] registered an inhibition in vivo at 50 mg/kg of 59%. The same measure, in the same setting: the result for `CC(=O)OCCCNC(=O)CCC(NC(=O)/C=C/c1ccco1)C(=O)NCCCOC(C)=O` (stereo not shown) [compound 19] reads 53%; that for `CC(C)NC(=O)CCC(NC(=O)/C=C/c1ccco1)C(=O)NC(C)C` (stereo not shown) [compound 23], 52%. The same measure, in the same setting: the figure for `CCCN(CCC)C(=O)[C@H](CCC(=O)N(C)C)NC(=O)CCCN1CCN(CC)CC1` [compound 13] is 55%; for `O=C(/C=C/c1ccco1)NC(CCC(=O)NCCCl)C(=O)NCCCl` (stereo not shown) [compound 22] it is 56%; for `CCCCNC(=O)CCC(NC(=O)/C=C/c1ccco1)C(=O)NCCCC` (stereo not shown) [compound 17] it is 32.1%. Same read-out and setting: the figure for `CCCN(CCC)C(=O)[C@H](CCC(=O)N(C)C)NC(=O)CCCN1CCN(c2ccccc2)CC1` [compound 14] is 52%; for `CCCNC(=O)C(CCC(=O)NCCCOC(C)=O)NC(=O)/C=C/c1ccco1` (stereo not shown) [compound 20] it is 53.5%; for `CCCN(CCC)C(=O)[C@H](CCC(=O)N(C)C)NC(=O)CCCN1CCC(NC(=O)OCc2ccccc2)CC1` [compound 15] it is 51%.

For the molecule `CCCNC(=O)C(CCC(N)=O)NC(=O)/C=C/c1ccco1` (stereo not shown) [compound 21], the inhibition in vivo at 50 mg/kg turned out to be 70.9%. On the same count and under the same terms, the result for `CCCN(CCC)C(=O)[C@H](CCC(=O)N(C)C)NC(=O)C1CCC(CN)CC1` (stereo partly shown) [compound 9] reads 59%; that for `CCCN(CCC)C(=O)[C@H](CCC(=O)N(C)C)NC(=O)CCN1CCN(C)CC1` [compound 11], 41%; that for `CCCN(CCC)C(=O)[C@H](CCC(=O)N(C)C)NC(=O)CCCN1CCN(C)CC1` [compound 12], 47%. `CCCN(CCC)C(=O)C(CCC(=O)O)NC(=O)c1ccccc1` (stereo not shown) [Proglumide, reference compound] showed an inhibition in vivo at 50 mg/kg of 0%. Still for that read-out and setting: the figure for `CCCN(CCC)C(=O)[C@H](CCC(=O)N(C)C)NC(=O)CN1CCN(C)CC1` [compound 10] is 55%; for `CC(C)CNC(=O)CCC(NC(=O)/C=C/c1ccco1)C(=O)NCC(C)C` (stereo not shown) [compound 18] it is 37.9%.

The next data set relates to Wistar strain rats. The experiment in a line: Anti-ulcer activity, Indomethacin-induced ulcers, oral (ED50). Format: in vivo, Wistar strain rats (male). The conditions noted are these: Rattus norvegicus, 1 h before Indomethacin 25 mg/kg p.o., ulcer lengths after 5 h, dose giving 50% of control. An excerpt:
On the other hand, Indomethacin alone was orally administered to a control group at the same dose.
In the case of `CCCN(CCC)C(=O)C(CCC(=O)NC)NC(=O)/C=C/c1ccco1` (racemic) [Test Compound 1, DL-2-[β-(2-furyl)acrylamido]-N^5-methyl-N^1,N^1-di(n-propyl)pentane-1,5-diamide], the 50% effect level (ED50) was put at a dose of 6.6 mg/kg.

As to `CCCN(CCC)C(=O)C(CCC(=O)N(C)C)NC(=O)/C=C/c1ccco1` (racemic) [Test Compound 2, DL-2-[β-(2-furyl)acrylamido]-N^5,N^5-dimethyl-N^1,N^1-di(n-propyl)-pentane-1,5-diamide], it took a dose of 9 mg/kg to reach the 50% effect level (ED50). The same measure, in the same setting: the figure for `CN(C)C(=O)CCC(NC(=O)/C=C/c1ccco1)C(=O)N(C)C` (racemic) [Test Compound 3, DL-2-[β-(2-furyl)acrylamido]-N^1,N^1,N^5,N^5-tetramethyl-pentane-1,5-diamide] is 10.8 mg/kg. Same read-out and setting: the result for `CCCN(CCC)C(=O)C(CCC(=O)O)NC(=O)c1ccccc1` (stereo not shown) [Proglumide, reference compound] reads 800 mg/kg.
